# Molecular target: T1, Recombinant human KIF18A (1-467 His-tagged) protein (Homo sapiens, UniProt Q8NI77)
# T1 construct: Recombinant human KIF18A (1-467 His-tagged) protein; His; made in house
# Test: KIF18A Enzyme Assay: microtubule-stimulated ATPase activity (ADP-Glo)
# Assay type: biochemical
# Conditions: 30 nM KIF18A, 75 μM ATP
# In short: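 Recombinant human KIF18A (1-467, His-tagged), baculovirus-expressed, assayed for microtubule-stimulated ATPase activity; ADP formed detected by ADP-Glo luminescence. Compounds tested as 22-point 2-fold serial dilutions in DMSO. IC50 from four-parameter logistic fit.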
# T1 sequence (Q8NI77 1-467): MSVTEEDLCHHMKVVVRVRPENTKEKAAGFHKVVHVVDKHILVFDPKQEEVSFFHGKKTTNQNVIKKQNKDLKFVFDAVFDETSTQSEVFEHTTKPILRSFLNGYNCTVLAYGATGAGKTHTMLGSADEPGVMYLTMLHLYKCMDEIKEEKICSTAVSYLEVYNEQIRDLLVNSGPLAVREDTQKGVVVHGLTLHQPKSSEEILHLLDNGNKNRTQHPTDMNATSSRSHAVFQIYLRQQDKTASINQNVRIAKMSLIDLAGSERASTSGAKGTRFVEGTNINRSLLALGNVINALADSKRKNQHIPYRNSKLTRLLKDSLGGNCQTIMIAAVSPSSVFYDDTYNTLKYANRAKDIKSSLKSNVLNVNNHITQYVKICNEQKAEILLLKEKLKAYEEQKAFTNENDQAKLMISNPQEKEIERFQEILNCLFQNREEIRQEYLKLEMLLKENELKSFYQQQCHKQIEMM
# T1 sequence (P02550 whole entry partner): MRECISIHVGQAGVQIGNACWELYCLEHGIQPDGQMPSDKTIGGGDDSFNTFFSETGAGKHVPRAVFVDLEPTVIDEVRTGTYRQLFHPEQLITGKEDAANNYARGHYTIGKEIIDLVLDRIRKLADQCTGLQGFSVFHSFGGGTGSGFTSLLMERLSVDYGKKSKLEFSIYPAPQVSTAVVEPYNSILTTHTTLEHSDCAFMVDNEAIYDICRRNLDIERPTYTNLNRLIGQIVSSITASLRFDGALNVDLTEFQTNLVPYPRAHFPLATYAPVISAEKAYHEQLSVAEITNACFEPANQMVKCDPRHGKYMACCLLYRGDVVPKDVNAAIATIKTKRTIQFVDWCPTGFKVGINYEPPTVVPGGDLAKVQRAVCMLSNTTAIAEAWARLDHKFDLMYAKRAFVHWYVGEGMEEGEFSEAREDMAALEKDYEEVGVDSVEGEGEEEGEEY
# T1 sequence (P02554 whole entry partner): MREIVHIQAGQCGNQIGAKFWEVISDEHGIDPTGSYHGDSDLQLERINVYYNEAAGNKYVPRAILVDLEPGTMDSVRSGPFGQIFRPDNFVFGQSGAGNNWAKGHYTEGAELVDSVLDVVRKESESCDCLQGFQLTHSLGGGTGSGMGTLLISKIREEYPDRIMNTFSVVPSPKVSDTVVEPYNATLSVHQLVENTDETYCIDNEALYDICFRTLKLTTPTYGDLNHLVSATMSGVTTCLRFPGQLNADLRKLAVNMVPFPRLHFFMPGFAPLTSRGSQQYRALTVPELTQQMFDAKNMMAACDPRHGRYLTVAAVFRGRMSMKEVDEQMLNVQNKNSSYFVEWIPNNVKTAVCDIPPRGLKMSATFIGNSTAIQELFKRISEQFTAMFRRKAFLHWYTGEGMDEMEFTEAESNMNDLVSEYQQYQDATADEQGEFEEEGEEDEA
row,Structure (SMILES),IC50 [nM]
1,"O=C(Nc1cccc(S(=O)(=O)C2CCCC2)c1)c1ccc(N2CCC2)nc1N1CCC2(CCC2)CC1 [Example 103-26, 6-(azctidin-1-yl)-N-(3-(cyclopentylsulfonyl)phenyl)-2-(7-azaspiro[3.5]nonan-7-yl)nicotinamide]",141
2,"O=C(Nc1cccc(S(=O)(=O)C2CCCC2)c1)c1ccc(N2CCOCC2)nc1N1CCC2(CCC2)CC1 [Example 103-27, N-(3-(cyclopentylsulfonyl)phenyl)-6-morpholino-2-(7-azaspiro[3.5]nonan-7-yl)nicotinamide]",688
3,"CC(C)(C)NS(=O)(=O)c1cccc(NC(=O)c2ccc(NC(C)(C)CCO)nc2N2CCC3(CC2)CC3)c1 [Example 103-28, N-(3-(N-(tert-butyl)sulfamoyl)phenyl)-6-((4-hydroxy-2-methylbutan-2-yl)amino)-2-(6-azaspiro[2.5]octan-6-yl)nicotinamide]",80
4,"O=C(Nc1cccc(S(=O)(=O)C2CCCC2)c1)c1ccc(OC2COC2)nc1N1CCC2(CC1)CC2 [Example 104, N-(3-(cyclopentylsulfonyl)phenyl)-6-(oxctan-3-yloxy)-2-(6-azaspiro[2.5]octan-6-yl)nicotinamide]",296
5,"COc1ccc(C(=O)Nc2cccc(S(=O)(=O)C3CCCC3)c2)c(N2CCC3(CC2)CC3)n1 [Example 104-1, N-(3-(cyclopentylsulfonyl)phenyl)-6-methoxy-2-(6-azaspiro[2.5]octan-6-yl)nicotinamide]",261
6,"CC(C)(CO)Nc1ccc(C(=O)Nc2cccc(S(=O)(=O)C3(C)CCC3)c2)c(N2CCC3(CC2)CC3)n1 [Example 105-1, 6-((1-hydroxy-2-methylpropan-2-yl)amino)-N-(3-((1-methylcyclobutyl)sulfonyl)phenyl)-2-(6-azaspiro[2.5]octan-6-yl)nicotinamide]",77
7,"CC(C)(CO)Nc1ccc(C(=O)Nc2cccc(S(=O)(=O)C(C)(C)C)c2)c(N2CCC3(CC2)CC3)n1 [Example 105-2, N-(3-(tert-butylsulfonyl)phenyl)-6-((1-hydroxy-2-methylpropan-2-yl)amino)-2-(6-azaspiro[2.5]octan-6-yl)nicotinamide]",80
8,"CC(C)(CO)Nc1ccc(C(=O)Nc2cccc(S(=O)(=O)C(C)(C)C(F)(F)F)c2)c(N2CCC3(CC2)CC3)n1 [Example 105-3, 6-((1-hydroxy-2-methylpropan-2-yl)amino)-2-(6-azaspiro[2.5]octan-6-yl)-N-(3-((1,1,1-trifluoro-2-methylpropan-2-yl)sulfonyl)phenyl)nicotinamide]",208
9,"CC(C)CS(=O)(=O)c1cccc(NC(=O)c2ccc(NC(C)(C)CO)nc2N2CCC3(CC2)CC3)c1 [Example 105-4, 6-((1-hydroxy-2-methylpropan-2-yl)amino)-N-(3-(isobutylsulfonyl)phenyl)-2-(6-azaspiro[2.5]octan-6-yl)nicotinamide]",42
10,"CC(C)(CO)Nc1ccc(C(=O)Nc2cccc(S(=O)(=O)C(F)(F)F)c2)c(N2CCC3(CC2)CC3)n1 [Example 105-5, 6-((1-hydroxy-2-methylpropan-2-yl)amino)-2-(6-azaspiro[2.5]octan-6-yl)-N-(3-((trifluoromethyl)sulfonyl)phenyl)nicotinamide]",186
11,"CC(C)(CO)Nc1ccc(C(=O)Nc2cccc(S(=O)(=O)C3CCC3)c2)c(N2CCC3(CC2)CC3)n1 [Example 105-6, N-(3-(cyclobutylsulfonyl)phenyl)-6-((1-hydroxy-2-methylpropan-2-yl)amino)-2-(6-azaspiro[2.5]octan-6-yl)nicotinamide]",28
12,"Cc1ccc(NC(=O)c2ccc(NC(C)(C)CO)nc2N2CCC3(CCC3)CC2)cc1S(=O)(=O)C1CCCC1 [Example 105-9, N-(3-(cyclopentylsulfonyl)-4-methylphenyl)-6-((1-hydroxy-2-methylpropan-2-yl)amino)-2-(7-azaspiro[3.5]nonan-7-yl)nicotinamide]",68
13,"CC(C)(C)NS(=O)(=O)c1cccc(NC(=O)c2ccc(NC3(CO)CC3)nc2N2CCC3(CC2)CC3)c1 [Example 105-11, N-(3-(N-(tert-butyl)sulfamoyl)phenyl)-6-((1-(hydroxymethyl)cyclopropyl)amino)-2-(6-azaspiro[2.5]octan-6-yl)nicotinamide]",94
14,"CC1(NS(=O)(=O)c2cccc(NC(=O)c3ccc(NC4(CO)CC4)nc3N3CCC4(CC3)CC4)c2)CCC1 [Example 105-12, 6-((1-(hydroxymethyl)cyclopropyl)amino)-N-(3-(N-(1-methylcyclobutyl)sulfamoyl)phenyl)-2-(6-azaspiro[2.5]octan-6-yl)nicotinamide]",105
15,"CC(C)(CO)Nc1ccc(C(=O)Nc2cccc(S(=O)(=O)NC3(C)CCC3)c2)c(N2CCC3(CC2)CC3)n1 [Example 105-13, 6-((1-hydroxy-2-methylpropan-2-yl)amino)-N-(3-(N-(1-methylcyclobutyl)sulfamoyl)phenyl)-2-(6-azaspiro[2.5]octan-6-yl)nicotinamide]",56
16,"Cc1ccc(NC(=O)c2ccc(NC(C)(C)CO)nc2N2CCC3(CC2)CC3)cc1S(=O)(=O)NC(C)(C)C [Example 105-16, N-(3-(N-(tert-butyl)sulfamoyl)-4-methylphenyl)-6-((1-hydroxy-2-methylpropan-2-yl)amino)-2-(6-azaspiro[2.5]octan-6-yl)nicotinamide]",121
17,"CC(C)(C)NS(=O)(=O)c1cc(NC(=O)c2ccc(NC(C)(C)CO)nc2N2CCC3(CC2)CC3)ccc1F [Example 105-17, N-(3-(N-(tert-butyl)sulfamoyl)-4-fluorophenyl)-6-((1-hydroxy-2-methylpropan-2-yl)amino)-2-(6-azaspiro[2.5]octan-6-yl)nicotinamide]",116
18,"Cc1cc(NC(=O)c2ccc(NC(C)(C)CO)nc2N2CCC3(CC2)CC3)cc(S(=O)(=O)NC(C)(C)C)c1 [Example 105-18, N-(3-(N-(tert-butyl)sulfamoyl)-5-methylphenyl)-6-((1-hydroxy-2-methylpropan-2-yl)amino)-2-(6-azaspiro[2.5]octan-6-yl)nicotinamide]",122
19,"CC(C)(C)NS(=O)(=O)c1cc(NC(=O)c2ccc(NC(C)(C)CO)nc2N2CCC3(CC2)CC3)ccc1Cl [Example 105-19, N-(3-(N-(tert-butyl)sulfamoyl)-4-chlorophenyl)-6-((1-hydroxy-2-methylpropan-2-yl)amino)-2-(6-azaspiro[2.5]octan-6-yl)nicotinamide]",70
20,"CC(C)(C)NS(=O)(=O)c1cc(F)cc(NC(=O)c2ccc(NC(C)(C)CO)nc2N2CCC3(CC2)CC3)c1 [Example 105-21, N-(3-(N-(tert-butyl)sulfamoyl)-5-fluorophenyl)-6-((1-hydroxy-2-methylpropan-2-yl)amino)-2-(6-azaspiro[2.5]octan-6-yl)nicotinamide]",108
21,"COc1cc(NC(=O)c2ccc(NC(C)(C)CO)nc2N2CCC3(CC2)CC3)cc(S(=O)(=O)NC(C)(C)C)c1 [Example 105-22, N-(3-(N-(tert-butyl)sulfamoyl)-5-methoxyphenyl)-6-((1-hydroxy-2-methylpropan-2-yl)amino)-2-(6-azaspiro[2.5]octan-6-yl)nicotinamide]",134

# Continued by falling IC50, values first:
row,IC50 [nM],Structure (SMILES)
1,800,"O=C(Nc1cccc(S(=O)(=O)NC2CC2)c1)c1ccc(NC2(CO)CC2)nc1N1CCC2(CC1)CC2 [Example 105-15, N-(3-(N-cyclopropylsulfamoyl)phenyl)-6-((1-(hydroxymethyl)cyclopropyl)amino)-2-(6-azaspiro[2.5]octan-6-yl)nicotinamide]"
2,177,"CC(C)(C)NS(=O)(=O)c1cccc(NC(=O)c2ccc(NC(C)(C)CO)nc2N2CCC3(CC2)CC3)c1F [Example 105-23, N-(3-(N-(tert-butyl)sulfamoyl)-2-fluorophenyl)-6-((1-hydroxy-2-methylpropan-2-yl)amino)-2-(6-azaspiro[2.5]octan-6-yl)nicotinamide]"
3,162,"COc1ccc(NC(=O)c2ccc(NC(C)(C)CO)nc2N2CCC3(CC2)CC3)cc1S(=O)(=O)NC(C)(C)C [Example 105-20, N-(3-(N-(tert-butyl)sulfamoyl)-4-methoxyphenyl)-6-((1-hydroxy-2-methylpropan-2-yl)amino)-2-(6-azaspiro[2.5]octan-6-yl)nicotinamide]"
4,143,"CC(C)(C)NS(=O)(=O)c1cc(Br)cc(NC(=O)c2ccc(NC(C)(C)CO)nc2N2CCC3(CC2)CC3)c1 [Example 105-24, N-(3-bromo-5-(N-(tert-butyl)sulfamoyl)phenyl)-6-((1-hydroxy-2-methylpropan-2-yl)amino)-2-(6-azaspiro[2.5]octan-6-yl)nicotinamide]"
5,58,"Cc1ccc(NC(=O)c2ccc(NC3(CO)CC3)nc2N2CCC3(CC2)CC3)cc1S(=O)(=O)C1CCCC1 [Example 105-10, N-(3-(cyclopentylsulfonyl)-4-methylphenyl)-6-((1-(hydroxymethyl)cyclopropyl)amino)-2-(6-azaspiro[2.5]octan-6-yl)nicotinamide]"
6,55,"Cc1ccc(NC(=O)c2ccc(NC(C)(C)CO)nc2N2CCC3(CC2)CC3)cc1S(=O)(=O)C1CCCC1 [Example 105-8, N-(3-(cyclopentylsulfonyl)-4-methylphenyl)-6-((1-hydroxy-2-methylpropan-2-yl)amino)-2-(6-azaspiro[2.5]octan-6-yl)nicotinamide]"
7,38,"O=C(Nc1cccc(S(=O)(=O)C2CCCC2)c1)c1ccc(NC2(CO)CC2)nc1N1CCC2(CCC2)CC1 [Example 103-25, N-(3-(cyclopentylsulfonyl)phenyl)-6-((1-(hydroxymethyl)cyclopropyl)amino)-2-(7-azaspiro[3.5]nonan-7-yl)nicotinamide]"
8,36,"O=C(Nc1cccc(S(=O)(=O)C2CCCC2)c1)c1ccc(NCCO)nc1N1CCC2(CCC2)CC1 [Example 103-24, N-(3-(cyclopentylsulfonyl)phenyl)-6-((2-hydroxyethyl)amino)-2-(7-azaspiro[3.5]nonan-7-yl)nicotinamide]"
9,33,"CC(C)(CO)Nc1ccc(C(=O)Nc2cccc(S(=O)(=O)NC3CC3)c2)c(N2CCC3(CC2)CC3)n1 [Example 105-14, N-(3-(N-cyclopropylsulfamoyl)phenyl)-6-((1-hydroxy-2-methylpropan-2-yl)amino)-2-(6-azaspiro[2.5]octan-6-yl)nicotinamide]"
